Where no end group is shown, it is not given here.
Columns and labels:
HSV-1 [1] = assay: microbe, parasite or virus in culture; assay type: cell-based, Herpes simplex virus type 1 (HSV-1 17 + strain); details: U251 cells
Procedure: (§1) Human glioma cells (U251) were maintained in Dulbecco’s Modified Eagle Medium (DMEM; Gibco, Waltham, MA, USA) supplemented with 10% heat-inactivated fetal bovine serum (FBS; ExCell), 100 U/mL penicillin, and 100 µg/mL streptomycin. Serum inactivation was performed at 56 °C for 30 min prior to medium supplementation. Cell cultures were incubated at 37 °C under 5% CO2 atmosphere. The HSV-1 17 + strain utilized in this study was maintained under laboratory preservation conditions.
U251 cells were seeded into 12-well plates at a density of 2 × 10^5 cells per well and incubated for 12 h. […] Following treatment, the total DNA was extracted by using DNA isolation mini kit (Vazyme, Nanjing, China) under the manufacturer’s instructions.
Total RNA was extracted using TRIzol reagent (Invitrogen, Carlsbad, CA, USA). One microgram of RNA was reverse-transcribed into cDNA by using a reverse transcription kit (Vazyme, China). Diluted gDNA and cDNAs were subjected to qPCR analysis using ChamQ Universal SYBR qPCR Master Mix (Vazyme, China) with the following parameters: 95 °C for 30 s, followed by 40 cycles of 95 °C for 5 s and 60 °C for 30 s, followed by melting curve analysis. Primers for qPCR were synthesized by Sangon Biotech (Shanghai, China) (Appendix A Table A2). The qPCR data were analyzed using the 2^−ΔΔCt method.

HSV-1 [2] = assay: HSV-1 footpad inoculation mouse model, viral load (UL30 gene copies) and lung H&E histology; assay type: in vivo; details: C57BL/6J mice, 10 mg/kg i.p. once daily for 5 days
Procedure: Female C57BL/6J mice, aged 6–8 weeks, were purchased from Beijing Vital River Laboratory Animal Technology Co., Ltd. (Beijing, China). […] Except for the vehicle control group, mice in the other groups were subplantarly infected with HSV-1 at a dose of 1.0 × 10^6 PFU per mouse. […] The vehicle control and virus control groups received an equivalent volume of phosphate-buffered saline (PBS). Mice were euthanized 24 h after the last administration, and tissue samples were collected. Body weight was measured daily at a fixed time during the treatment period to generate weight change curves.
Tissues were homogenized using a tissue grinder and total DNA was extracted from homogenate supernatants using a DNA isolation mini kit (Vazyme, China) under the manufacturer’s instructions. To establish a standard curve for real-time quantitative PCR (qPCR), the UL30 gene was used as the target sequence, and a recombinant plasmid containing this gene was constructed. In brief, the UL30 gene was cloned into the pMD19-T vector and transformed into DH5α. After verification by colony PCR and sequencing, high-purity plasmid DNA was extracted, and its concentration was measured using Nanodrop and converted into copy numbers (copies/μL). Then a 10-fold serial dilution (10^1–10^8 copies/μL) was prepared to generate the standard curve. Using the extracted DNA as a template, UL30 gene copy numbers were quantified in mouse tissues through qPCR with UL30 specific primers.
Tissues were fixed in 4% paraformaldehyde for 72 h and subsequently processed by Servicebio Biotechnology Co., Ltd. (Wuhan, China) for paraffin embedding, pathological sectioning, and hematoxylin eosin (H&E) staining.

U251 cells = assay: Cytotoxicity assay (CCK-8) on U251 cells; assay type: cell-based, Human; details: 24 h
Procedure: as §1
Cell viability was evaluated by using cell counting kit-8 reagent (CCK-8, Biosharp, Shanghai, China) according to the manufacturer’s protocol. Briefly, U251 cells were seeded in 96-well culture plates and cultured for 12 h at 37 °C. The cells were then treated with or without peptides for 24 h. After that, 10 μL of the CCK-8 reaction mixture were added to each well and incubated at 37 °C for 0.5–4 h. The absorbance of each well was measured at 450 nm with a SpectraMax M2e Multi-Mode Microplate Reader (Molecular Devices, USA). The formula for calculating cell viability is as follows:
Cell viability (%) = (average OD of treated sample-average OD of vehicle sample)/(average OD of cell sample-average OD of vehicle sample) × 100%

## Nc1nc2c(ncn2COCCO)c(=O)[nH]1 [ACV, Acyclovir]
HSV-1 [1]; Human alphaherpesvirus 1, U-251, HSV-1 MOI = 0.1, co-treatment 24 h, qPCR of UL30 DNA, mean ± SEM of three independent experiments, read-out: IC50 against HSV-1
  IC50: 17.6 ± 5.75 µM
HSV-1 [2]; HSV-1 footpad 1.0 × 10^6 PFU, day 5 post-infection, n = 5, HSV-1 control 7.02 ± 0.57
  Lung tissue viral load (HSV-1 UL30 gene copies): 6.01 ± 0.13 log10 copies/μL
HSV-1 [2]; HSV-1 footpad, n = 5, HSV-1 control 7.78 ± 0.41 log10 copies/μL
  Heart tissue viral load versus HSV-1 control group: neither the EM-1 nor the ACV treatment group showed a significant difference
HSV-1 [2]; HSV-1 footpad, compared with HSV-1 control group
  Lung histopathology (H&E staining): preserved normal alveolar architecture

## GRRVKGFFRDVLRRVPYLPGPR-NH2 [EM-2, modified peptide derived from Elephas maximus cathelicidin EM]
U251 cells; U251 cells, CCK-8, 5 μM and 10 μM, compared to peptide EM, EM-3 and EM-4
  Cytotoxic effect on U251 cells (cell viability): significantly lower toxicity
HSV-1 [1]; HSV-1 MOI = 0.1, 24 h, 10 μM peptide, versus virus control group, p < 0.001
  Relative DNA levels of HSV-1 UL30: marked suppression of HSV-1 activity

## RRIRGLRKFFRKSKEKLKKV-NH2 [EM-1]
U251 cells
  CC50 (median cytotoxic concentration): 214.55 ± 36.25 µM
